Measured values reported in US9643999B2 (Bristol-Myers Squibb Company, priority 2012, dated 2017).
Like-named read-outs stand apart in the source and are kept apart here.

Columns and labels:
HCV genotype 1a replicon = assay: HCV replicon luciferase reporter assay, genotype 1a (LE_1a); format: cell-based; conditions: Hepatitis C virus, 72 h, HUH-7 cells, genotype 1a H77 replicon, 3 days incubation, Renilla luciferase
Text: (§1) An HCV replicon whole cell system was established as described by Lohmann V, Korner F, Koch J, Herian U, Theilmann L, Bartenschlager R., Science 285(5424):110-3 (1999) and modified to introduce a luciferase reporter, as first described by Krieger et al (Krieger N, Lohmann V, and Bartenschlager R, J. Virol. 75(10):4614-4624 (2001)). cDNA encoding a humanized form of the Renilla luciferase gene and a linker sequence fused directly to the 3′-end of the luciferase gene were introduced into the replicon construct using an Asc1 restriction site located in core, directly upstream of the neomycin marker gene. The adaptive mutation at position 1179 (serine to isoleucine) was also introduced (Blight K J, Kolykhalov, A A, Rice, C M, Science 290(5498):1972-1974). A stable cell line constitutively expressing this HCV replicon construct was generated by first linearizing plasmid DNAs with ScaI. RNA transcripts were synthesized in vitro using the T7 MegaScript transcription kit (Ambion, Austin, Tex.) according to manufacturer's directions. In vitro transcripts of the cDNA were transfected into the human hepatoma cell line, HUH-7. […] Resulting cell lines were characterized for positive and negative strand RNA production and protein production over time.
A stable HCV replicon luciferase reporter cell line representing the genotype 1a H77 strain (Yanagi M, Purcell R H, Emerson S U, et al. Transcripts from a single full-length cDNA clone of hepatitis C virus are infectious when directly transfected into the liver of a chimpanzee. Proc Natl Acad Sci USA 1997; 94(16):8738-8743) was generated as described previously for the genotype 1b(Con1) replicon luciferase cell line. The replicon construct was modified by introducing mutations were introduced into the genes encoding the NS3 helicase domain (proline replaced by leucine at position 1496) and NS5A (serine to isoleucine at position 2204) to improve replication in cell culture.
(§2) HCV replicon luciferase assays were developed to monitor the inhibitory effects of compounds described in the disclosure on HCV genotypes 1a and 1b viral replication. HUH-7 cells, constitutively expressing the HCV replicon, were grown in Dulbecco's Modified Eagle Media (DMEM) (Gibco-BRL) containing 10% Fetal calf serum (FCS) (Sigma) and 1 mg/mL G418 (Gibco-BRL). Compounds were serially diluted 3 folds in DMSO for a twenty-point titration and subsequently transferred to sterile 384-well tissue-culture treated plates (Corning cat #3571). The plates were then seeded with 50 μL of cells at a density of 3.0×10^3 cells/well in DMEM containing 4% FCS (final DMSO concentration at 0.5%). After 3 days incubation at 37° C., cells were analyzed for Renilla Luciferase activity using the EnduRen as substrate (Promega cat #E6485). The EnduRen substrate was diluted in DMEM and then added to the plates to a final concentration of 7.5 μM. The plates were incubated for 2 hrs at 37° C. and then read immediately for 30 seconds with Viewlux Imager (PerkinElmer) using a luminescence program. To assess cytotoxicity of compounds, CC50 values were generated by multiplexing the EnduRen-containing plates with Cell Titer-Blue (Promega, cat #G8082). Cell-Titer Blue (3 μL) was added to each well and incubated for 8 hrs at 37° C. The fluorescence signal from each well was read, with an excitation wavelength at 525/10 nm and an emission wavelength of 598/10 nm, using the Viewlux Imager.
(§3) The EC50 values for compounds were calculated by using a four-parameter logistic equation: y=A+((B−A)/(1+((C/x)^D))), where A and B denotes minimal and maximal % inhibition, respectively, C is the EC50, D is the hill slope and x represents compound concentration.

HCV genotype 1b replicon = assay: HCV replicon luciferase reporter assay, genotype 1b (LE_1b); format: cell-based; conditions: Hepatitis C virus, 72 h, HUH-7 cells, genotype 1b (Con1) replicon, 3 days incubation, Renilla luciferase
Text: as §1, with “time. […]” for “time.”
as §2, §3

| Structure (SMILES) | EC50 (HCV genotype 1a replicon; read-out: LE_1a (EC50, range)) [nM] | EC50 (HCV genotype 1b replicon; read-out: LE_1b (EC50, range)) [nM] | EC50 (HCV genotype 1a replicon; read-out: LE_1a (EC50)) [nM] | EC50 (HCV genotype 1b replicon; read-out: LE_1b (EC50)) [nM] |
| --- | --- | --- | --- | --- |
| [2H]C([2H])([2H])C1(S(=O)(=O)NC(=O)[C@@]23C[C@H]2/C=C\CC[C@@H](C)C[C@@H](CC)[C@H](NC(=O)OC(C)(C)C)C(=O)N2C[C@H](Oc4nccc5cc(OCC)c(F)cc45)C[C@H]2C(=O)N3)CC1 [Compound 5509] | 1.01 to 5 | 0.51 to 1 |  |  |
| CC[C@@H]1C[C@H](C)CC/C=C\[C@@H]2C[C@@]2(C(=O)NS(=O)(=O)C2CC2)NC(=O)[C@@H]2C[C@@H](Oc3nc4ccc(OC)cc4nc3C3CC3)CN2C(=O)[C@H]1NC(=O)OC(C)(C)C [Compound 4306] | 5.01 to 35 | 5.01 to 35 |  |  |
| [2H]C([2H])([2H])C1(S(=O)(=O)NC(=O)[C@@]23C[C@H]2/C=C\CC[C@@H](C)C[C@@H](CC)[C@H](NC(=O)OC(C)(C)C(F)F)C(=O)N2C[C@H](Oc4nccc5cc(OC)c(F)cc45)C[C@H]2C(=O)N3)CC1 [Compound 5515] | 1.01 to 5 | 0.51 to 1 |  |  |
| CC[C@@H]1C[C@H](C)CC/C=C\[C@@H]2C[C@@]2(C(=O)NS(=O)(=O)C2CC2)NC(=O)[C@@H]2C[C@@H](Oc3nc4ccc(OC)cc4nc3C3CC3)CN2C(=O)[C@H]1NC(=O)OC(C)(C)C(F)(F)F [Compound 4308] | 5.01 to 35 | 5.01 to 35 |  |  |
| CC[C@@H]1C[C@H](C)CC/C=C\[C@@H]2C[C@@]2(C(=O)NS(=O)(=O)C2CC2)NC(=O)[C@@H]2C[C@@H](Oc3nc4cc(OC)ccc4nc3C3CC3)CN2C(=O)[C@H]1NC(=O)OC(C)(C)C [Compound 4307] | 1.01 to 5 | 1.01 to 5 |  |  |
| CC[C@@H]1C[C@H](C)CC/C=C\[C@@H]2C[C@@]2(C(=O)NS(=O)(=O)C2(C)CC2)NC(=O)[C@@H]2C[C@@H](Oc3ncc(-c4nc(C(C)(C)C)cs4)c4cc(OC)ccc34)CN2C(=O)[C@H]1NC(=O)OC(C)(C)C [Compound 4274, tert-butyl((2R,6S,7R,9R,13aS,14aR,16aS,Z)-2-((4-(4-(tert-butyl)thiazol-2-yl)-6-methoxyisoquinolin-1-yl)oxy)-7-ethyl-9-methyl-14a-(((1-methylcyclopropyl)sulfonyl)carbamoyl)-5,16-dioxo-1,2,3,5,6,7,8,9,10,11,13a,14,14a,15,16,16a-hexadecahydrocyclopropa[e]pyrrolo[1,2-a][1,4]diazacyclopentadecin-6-yl)carbamate] | 5.01 to 35 | 1.01 to 5 |  |  |
| CC[C@@H]1C[C@H](C)CC/C=C\[C@@H]2C[C@@]2(C(=O)NS(=O)(=O)C2(C)CC2)NC(=O)[C@@H]2C[C@@H](Oc3ncc(-c4cnco4)c4cc(OC)ccc34)CN2C(=O)[C@H]1NC(=O)OC(C)(C)C(F)(F)F [Compound 4291] | 1.01 to 5 | 0.51 to 1 |  |  |
| [2H]C([2H])([2H])C1(S(=O)(=O)NC(=O)[C@@]23C[C@H]2/C=C\CC[C@@H](C)C[C@@H](CC)[C@H](NC(=O)OC(C)(C)C(C)(F)F)C(=O)N2C[C@H](Oc4nccc5cc(OC)c(F)cc45)C[C@H]2C(=O)N3)CC1 [Compound 5513] | 1.01 to 5 | 0.51 to 1 |  |  |
| Cc1cn2c(n1)nc(O[C@@H]1C[C@H]3C(=O)N[C@]4(C(=O)NS(=O)(=O)C5(CF)CC5)C[C@H]4/C=C\CC[C@@H](C)C[C@@H](C)[C@H](NC(=O)OC(C)(C)C(C)(F)F)C(=O)N3C1)c1cc(Cl)ccc12 [Compound 6141] | 5.01 to 35 | 1.01 to 5 |  |  |
| CC[C@@H]1C[C@H](C)CC/C=C\[C@@H]2C[C@@]2(C(=O)NS(=O)(=O)C2CC2)NC(=O)[C@@H]2C[C@@H](Oc3nc4cc(OC)ccc4nc3C3CC3)CN2C(=O)[C@H]1NC(=O)OC(C)(C)C(F)(F)F [Compound 4309] | 1.01 to 5 | 1.01 to 5 | 3.51 | 2.31 |
| [2H]C([2H])([2H])C1(S(=O)(=O)NC(=O)[C@@]23C[C@H]2/C=C\CC[C@@H](C)C[C@@H](CC)[C@H](NC(=O)OC(C)(C)C(F)(F)F)C(=O)N2C[C@H](Oc4nccc5cc(OC)c(F)cc45)C[C@H]2C(=O)N3)CC1 [Compound 5511] | 1.01 to 5 | 1.01 to 5 |  |  |
| [2H]C([2H])([2H])C1(S(=O)(=O)NC(=O)[C@@]23C[C@H]2/C=C\CC[C@@H](C)C[C@@H](CC)[C@H](NC(=O)OC(C)(C)C)C(=O)N2C[C@H](Oc4nccc5cc(OC)c(F)cc45)C[C@H]2C(=O)N3)CC1 [Compound 5507] | 1.01 to 5 | 0.51 to 1 |  |  |
| C[C@@H]1CC/C=C\[C@@H]2C[C@@]2(C(=O)NS(=O)(=O)C2(C)CC2)NC(=O)[C@@H]2C[C@@H](Oc3nc4nncn4c4ccccc34)CN2C(=O)[C@@H](NC(=O)OC(C)(C)C)[C@H](C)C1 [Compound 6120, tert-butyl((2R,6S,7R,9R,13aS,14aR,16aS,Z)-2-([1,2,4]triazolo[4,3-a]quinazolin-5-yloxy)-7,9-dimethyl-14a-(((1-methylcyclopropyl)sulfonyl)carbamoyl)-5,16-dioxo-1,2,3,5,6,7,8,9,10,11,13a,14,14a,15,16,16a-hexadecahydrocyclopropa[e]pyrrolo[1,2-a][1,4]diazacyclopentadecin-6-yl)carbamate] | 35 to 145 | 35 to 145 |  |  |
| CC[C@@H]1C[C@H](C)CC/C=C\[C@@H]2C[C@@]2(C(=O)NS(=O)(=O)C2(C)CC2)NC(=O)[C@@H]2C[C@@H](Oc3nc4cc(-c5ncc(C)o5)ccc4nc3C(F)(F)F)CN2C(=O)[C@H]1NC(=O)OC(C)(C)C(F)(F)F [Compound 7003] | 1.01 to 5 | 0.51 to 1 | 3.7 | 0.8 |
| Cc1cnc(-c2ccc3nc(C(F)(F)F)c(O[C@@H]4C[C@H]5C(=O)N[C@]6(C(=O)NS(=O)(=O)C7(C)CC7)C[C@H]6/C=C\CC[C@@H](C)C[C@@H](C)[C@H](NC(=O)OC(C)(C)C(F)(F)F)C(=O)N5C4)nc3c2)o1 [Compound 7002] | 1.01 to 5 | 0.51 to 1 |  |  |
| CC[C@@H]1C[C@H](C)CC/C=C\[C@@H]2C[C@@]2(C(=O)NS(=O)(=O)C2(C)CC2)NC(=O)[C@@H]2C[C@@H](Oc3ncc(-c4nccs4)c4cc(OC)ccc34)CN2C(=O)[C@H]1NC(=O)OC(C)(C)C(F)(F)F [Compound 4258] | 1.01 to 5 | 1.01 to 5 |  |  |
| CC[C@@H]1C[C@H](C)CC/C=C\[C@@H]2C[C@@]2(C(=O)NS(=O)(=O)C2(C)CC2)NC(=O)[C@@H]2C[C@@H](Oc3cc(-n4ccnc4)c4ccc(OC)cc4n3)CN2C(=O)[C@H]1NC(=O)OC(C)(C)C(F)(F)F [Compound 4282] | 5.01 to 35 | 1.01 to 5 |  |  |
| C[C@@H]1CC/C=C\[C@@H]2C[C@@]2(C(=O)NS(=O)(=O)C2(C)CC2)NC(=O)[C@@H]2C[C@@H](Oc3nc4nccn4c4ccc(Cl)cc34)CN2C(=O)[C@@H](NC(=O)OC(C)(C)C(F)(F)F)[C@H](C)C1 [Compound 6129] | 1.01 to 5 | 0.51 to 1 | 4.21 | 0.78 |
